This passage reports EC50 and Emax results from patent US9822130B2, “Triazolo-pyrazinyl derivatives useful as soluble guanylate cyclase activators” (Merck Sharp & Dohme Corp., priority 2014, dated 2017).

In the first assay the target is T1, sGC α1/β1 heterodimer stably expressed in CHO-K1 cell line (CHO-K1/sGC) (Homo sapiens, UniProt Q02108+Q02153).
T1 construct: expressed in transfected cells
T1 sequence (Q02108 1-690): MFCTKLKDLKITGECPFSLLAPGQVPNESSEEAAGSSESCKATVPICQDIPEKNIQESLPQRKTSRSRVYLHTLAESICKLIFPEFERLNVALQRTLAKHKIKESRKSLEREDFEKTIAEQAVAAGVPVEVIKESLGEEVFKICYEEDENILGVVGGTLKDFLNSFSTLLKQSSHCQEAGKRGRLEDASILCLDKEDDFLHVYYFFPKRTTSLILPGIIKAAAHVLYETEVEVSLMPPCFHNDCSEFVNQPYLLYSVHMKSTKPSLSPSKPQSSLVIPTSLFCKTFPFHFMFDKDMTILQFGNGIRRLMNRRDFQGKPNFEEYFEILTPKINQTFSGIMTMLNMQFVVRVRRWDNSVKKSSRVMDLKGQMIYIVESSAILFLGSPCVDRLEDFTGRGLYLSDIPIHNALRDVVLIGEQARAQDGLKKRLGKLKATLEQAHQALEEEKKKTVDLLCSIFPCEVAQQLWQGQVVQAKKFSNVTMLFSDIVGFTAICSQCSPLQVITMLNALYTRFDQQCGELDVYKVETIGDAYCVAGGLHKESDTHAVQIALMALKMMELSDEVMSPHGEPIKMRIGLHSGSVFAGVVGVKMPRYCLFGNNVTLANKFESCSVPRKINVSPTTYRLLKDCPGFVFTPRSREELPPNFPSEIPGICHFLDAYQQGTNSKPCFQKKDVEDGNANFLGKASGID
T1 sequence (Q02153 1-619): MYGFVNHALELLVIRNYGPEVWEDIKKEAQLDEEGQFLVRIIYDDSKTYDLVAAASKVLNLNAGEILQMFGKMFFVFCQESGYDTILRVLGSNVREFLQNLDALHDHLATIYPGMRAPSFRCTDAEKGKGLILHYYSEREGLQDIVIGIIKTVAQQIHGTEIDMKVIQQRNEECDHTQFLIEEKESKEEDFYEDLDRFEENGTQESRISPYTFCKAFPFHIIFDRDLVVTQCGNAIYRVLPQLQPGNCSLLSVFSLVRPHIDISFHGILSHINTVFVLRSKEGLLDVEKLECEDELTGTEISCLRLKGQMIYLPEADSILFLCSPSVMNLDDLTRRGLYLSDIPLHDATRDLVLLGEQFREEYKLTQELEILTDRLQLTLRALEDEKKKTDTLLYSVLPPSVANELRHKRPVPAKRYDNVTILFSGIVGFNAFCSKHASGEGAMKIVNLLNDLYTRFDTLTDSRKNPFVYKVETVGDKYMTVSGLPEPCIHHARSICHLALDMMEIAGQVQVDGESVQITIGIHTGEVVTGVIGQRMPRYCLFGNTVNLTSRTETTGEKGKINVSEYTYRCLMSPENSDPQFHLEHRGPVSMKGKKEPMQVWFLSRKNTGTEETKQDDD
As to the kind of experiment: Cell-based sGC Functional Assay (CASA Assay), cGMP generation. The settings on record: CHO-K1/sGC cells, 1 hr at 37° C., cGMP by HTRF, 4P fit; presence or absence of 1 μM DETA-NO not given; read-out: IP (nM) (inflection point). The procedure, abridged: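 Readout is HTRF cGMP in lysates, normalised to the maximal response of reference sGC activator Compound A (100%), with a 4P fit giving IP and fold induction. Cells were CHO-K1/sGC (human α1/β1) in EBSS buffer with IBMX, incubated 1 hr at 37° C with compound. Run with and without 1 μM DETA-NO; final DMSO 2.5%.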
(In general: Time-resolved FRET reads energy transfer from a long-lived donor to a nearby acceptor.)
Consider `CC1(c2cnc(C(F)(F)F)cn2)C(=O)Nc2nc(-c3cn4ncnc4c(CCCC(F)(F)F)n3)nc(N)c21` (stereo not shown) [Example 50B, 4-amino-5-methyl-2-(8-(4,4,4-trifluorobutyl)-[1,2,4]triazolo[1,5-a]pyrazin-6-yl)-5-(5-(trifluoromethyl)pyrazin-2-yl)-5H-pyrrolo[2,3-d]pyrimidin-6(7H)-one], for which the EC50 stood at 150 nM.
Consider `CCCc1nc(-c2nc(N)c3c(n2)NC(=O)[C@@]3(C)c2ccc(F)cc2)cn2ncnc12` [Example 52A, (S)-4-amino-5-(4-fluorophenyl)-5-methyl-2-(8-propyl-[1,2,4]triazolo[1,5-a]pyrazin-6-yl)-5,7-dihydro-6H-pyrrolo[2,3-d]pyrimidin-6-one], for which the EC50 turned out to be 63.2 nM.
Regarding `CCCc1nc(-c2nc(N)c3c(n2)NC(=O)C3(C)c2ccc(Cl)cc2)cn2ncnc12` (stereo not shown) [Example 53A, 4-amino-5-(4-chlorophenyl)-5-methyl-2-(8-propyl-[1,2,4]triazolo[1,5-a]pyrazin-6-yl)-5H-pyrrolo[2,3-d]pyrimidin-6(7H)-one], the EC50 was 26.9 nM.
For the molecule `CCCc1nc(-c2nc(N)c3c(n2)NC(=O)C3(C)c2ccc(F)cn2)cn2ncnc12` (stereo not shown) [Example 54B, 4-amino-5-(5-fluoropyridin-2-yl)-5-methyl-2-(8-propyl-[1,2,4]triazolo[1,5-a]pyrazin-6-yl)-5H-pyrrolo[2,3-d]pyrimidin-6(7H)-one], the EC50 was 318 nM.
As for `CCCc1nc(-c2nc(N)c3c(n2)NC(=O)C3(c2ccc(C(F)(F)F)cn2)C2CC2)cn2ncnc12` (stereo not shown) [Example 56A, 4-amino-5-cyclopropyl-2-(8-propyl-[1,2,4]triazolo[1,5-a]pyrazin-6-yl)-5-(5-(trifluoromethyl)pyridin-2-yl)-5H-pyrrolo[2,3-d]pyrimidin-6(7H)-one], the EC50 stood at 384 nM.
Still for that read-out and setting: then `CCCc1nc(-c2nc(N)c3c(n2)NC(=O)C3(c2ccc(Cl)cn2)C2CC2)cn2ncnc12` (stereo not shown) [Example 57A, 4-amino-5-(5-chloropyridin-2-yl)-5-cyclopropyl-2-(8-propyl-[1,2,4]triazolo[1,5-a]pyrazin-6-yl)-5H-pyrrolo[2,3-d]pynmidin-6(7H)-one], with 577 nM; and `CCCc1nc(-c2nc(N)c3c(n2)NC(=O)C3(c2ccc(F)c(F)c2)C2CC2)cn2ncnc12` (stereo not shown) [Example 58A, 4-amino-5-cyclopropyl-5-(3,4-difluorophenyl)-2-(8-propyl-[1,2,4]triazolo[1,5-a]pyrazin-6-yl)-5H-pyrrolo[2,3-d]pyrimidin-6(7H)-one], with 242 nM; and `CCCc1nc(-c2nc(N)c3c(n2)NC(=O)C3(c2ccc(F)cn2)C2CC2)cn2ncnc12` (stereo not shown) [Example 59A, 4-amino-5-cyclopropyl-5-(5-fluoropyridin-2-yl)-2-(8-propyl-[1,2,4]triazolo[1,5-a]pyrazin-6-yl)-5H-pyrrolo[2,3-d]pyrimidin-6(7H)-one], with 263 nM.
`CCCCc1nc(-c2nc(N)c3c(n2)NC(=O)[C@@]3(C)c2ccc(F)cc2)cn2ncnc12` [Example 60A, (S)-4-amino-2-(8-butyl-[1,2,4]triazolo[1,5-a]pyrazin-6-yl)-5-(4-fluorophenyl)-5-methyl-5,7-dihydro-6H-pyrrolo[2,3-d]pyrimidin-6-one]: the EC50 came out at 22.6 nM.
Turning to `CCCCc1nc(-c2nc(N)c3c(n2)NC(=O)C3(C)c2ccc(F)cn2)cn2ncnc12` (stereo not shown) [Example 61B, 4-amino-2-(8-butyl-[1,2,4]triazolo[1,5-d]pyrazin-6-yl)-5-(5-fluoropyridin-2-yl)-5-methyl-5H-pyrrolo[2,3-d]pyrimidin-6(7H)-one], the EC50 came to 9.7 nM.
Turning to `CCCCc1nc(-c2nc(N)c3c(n2)NC(=O)C3(C)c2ccc(Cl)c(F)c2)cn2ncnc12` (stereo not shown) [Example 62B, 4-amino-2-(8-butyl-[1,2,4]triazolo[1,5-a]pyrazin-6-yl)-5-(4-chloro-3-fluorophenyl)-5-methyl-5H-pyrrolo[2,3-d]pyrimidin-6(7H)-one], the EC50 came to 51 nM.
For `CCCCc1nc(-c2nc(N)c3c(n2)NC(=O)C3(C)c2ccc(Cl)cc2)cn2ncnc12` (stereo not shown) [Example 63A, 4-amino-2-(8-butyl-[1,2,4]triazolo[1,5-a]pyrazin-6-yl)-5-(4-chlorophenyl)-5-methyl-5H-pyrrolo[2,3-d]pyrimidin-6(7H)-one], the EC50 was determined as 21.9 nM.
For the molecule `CCCCc1nc(-c2nc(N)c3c(n2)NC(=O)C3(C)c2ccc(F)c(F)c2)cn2ncnc12` (stereo not shown) [Example 64B, 4-amino-2-(8-butyl-[1,2,4]triazolo[1,5-a]pyrazin-6-yl)-5-(3,4-difluorophenyl)-5-methyl-5H-pyrrolo[2,3-d]pyrimidin-6(7H)-one], the EC50 came out at 5.1 nM.
On the same count and under the same terms, then `CCCCc1nc(-c2nc(N)c3c(n2)NC(=O)C3(c2ccc(F)c(F)c2)C2CC2)cn2ncnc12` (stereo not shown) [Example 65A, 4-amino-2-(8-butyl-[1,2,4]triazolo[1,5-a]pyrazin-6-yl)-5-cyclopropyl-5-(3,4-difluorophenyl)-5H-pyrrolo[2,3-d]pyrimidin-6(7H)-one], with 2.6 nM; and `CCCCc1nc(-c2nc(N)c3c(n2)NC(=O)C3(c2ccc(F)cn2)C2CC2)cn2ncnc12` (stereo not shown) [Example 66A, 4-amino-2-(8-butyl-[1,2,4]triazolo[1,5-a]pyrazin-6-yl)-5-cyclopropyl-5-(5-fluoropyridin-2-yl)-5H-pyrrolo[2,3-d]pyrimidin-6(7H)-one], with 34.2 nM; and `CCCCc1nc(-c2nc(N)c3c(n2)NC(=O)C3(C)c2ccc(C(F)(F)F)cn2)cn2ncnc12` (stereo not shown) [Example 67B, 4-amino-2-(8-butyl-[1,2,4]triazolo[1,5-a]pyrazin-6-yl)-5-methyl-5-(5-(trifluoromethyl)pyridin-2-yl)-5H-pyrrolo[2,3-d]pyrimidin-6(7H)-one], with 25.5 nM.
For `CCCCc1nc(-c2nc(N)c3c(n2)NC(=O)C3(c2ccc(Cl)cn2)C2CC2)cn2ncnc12` (stereo not shown) [Example 68A, 4-amino-2-(8-butyl-[1,2,4]triazolo[1,5-a]pyrazin-6-yl)-5-(5-chloropyridin-2-yl)-5-cyclopropyl-5H-pyrrolo[2,3-d]pyrimidin-6(7H)-one], the EC50 stood at 18.7 nM.
For `CCCCc1nc(-c2nc(N)c3c(n2)NC(=O)C3(C)c2ccc(Cl)cn2)cn2ncnc12` (stereo not shown) [Example 69A, 4-amino-2-(8-butyl-[1,2,4]triazolo[1,5-a]pyrazin-6-yl)-5-(5-chloropyridin-2-yl)-5-methyl-5H-pyrrolo[2,3-d]pyrimidin-6(7H)-one], the EC50 was found to be 13.7 nM.
As to `CCCCc1nc(-c2nc(N)c3c(n2)NC(=O)C3(c2ccc(C(F)(F)F)cn2)C2CC2)cn2ncnc12` (stereo not shown) [Example 70A, 4-amino-2-(8-butyl-[1,2,4]triazolo[1,5-a]pyrazin-6-yl)-5-cyclopropyl-5-(5-(trifluoromethyl)pyridin-2-yl)-5H-pyrrolo[2,3-d]pyrimidin-6(7H)-one], the EC50 came to 41.8 nM.
In the case of `CCCCc1nc(-c2nc(N)c3c(n2)NC(=O)C3(C)c2ccc(C)cn2)cn2ncnc12` (stereo not shown) [Example 71B, 4-amino-2-(8-butyl-[1,2,4]triazolo[1,5-a]pyrazin-6-yl)-5-methyl-5-(5-methylpyridin-2-yl)-5H-pyrrolo[2,3-d]pyrimidin-6(7H)-one], the EC50 was 5.5 nM.
Still for that read-out and setting: then `CC(C)Cc1nc(-c2nc(N)c3c(n2)NC(=O)[C@@]3(C)c2ccc(F)cc2)cn2ncnc12` [Example 73A, (S)-4-amino-5-(4-fluorophenyl)-2-(8-isobutyl-[1,2,4]triazolo[1,5-a]pyrazin-6-yl)-5-methyl-5,7-dihydro-6H-pyrrolo[2,3-d]pyrimidin-6-one], with 44.1 nM.

Staying with this assay, now noted: CHO-K1/sGC cells, 1 hr at 37° C., cGMP by HTRF; presence or absence of 1 μM DETA-NO not given; read-out: % Act. (percent activation relative to maximum cGMP production of Compound A = 100%).
As to `CCCCc1nc(-c2nc(N)c3c(n2)NC(=O)C3(C)c2ccc(F)c(F)c2)cn2ncnc12` (stereo not shown) [Example 64B, 4-amino-2-(8-butyl-[1,2,4]triazolo[1,5-a]pyrazin-6-yl)-5-(3,4-difluorophenyl)-5-methyl-5H-pyrrolo[2,3-d]pyrimidin-6(7H)-one], the Emax was determined as 90%.
